# Publication PMC7450057, “Enhancing intracellular accumulation and target engagement of PROTACs with reversible covalent chemistry” (Nature Communications, 2020)
# Where “and” joins values, the source holds several entries; their conditions need not be identical. Identical values can stand only once. Entries after “also recorded” stand apart in the source; their conditions may differ.
# What was measured:
# [1] = target: T1, full-length BTK protein (Homo sapiens, UniProt Q06187); test: BTK binding assay (Kd, Eurofins DiscoverX)
# T1 construct: Kd was measured using the full-length BTK protein by Eurofins DiscoverX; T7 phage fusion or DNA tag for qPCR (generic vendor protocol); purchased Eurofins DiscoverX
# T1 sequence (Q06187 whole entry, the tested form may be a part): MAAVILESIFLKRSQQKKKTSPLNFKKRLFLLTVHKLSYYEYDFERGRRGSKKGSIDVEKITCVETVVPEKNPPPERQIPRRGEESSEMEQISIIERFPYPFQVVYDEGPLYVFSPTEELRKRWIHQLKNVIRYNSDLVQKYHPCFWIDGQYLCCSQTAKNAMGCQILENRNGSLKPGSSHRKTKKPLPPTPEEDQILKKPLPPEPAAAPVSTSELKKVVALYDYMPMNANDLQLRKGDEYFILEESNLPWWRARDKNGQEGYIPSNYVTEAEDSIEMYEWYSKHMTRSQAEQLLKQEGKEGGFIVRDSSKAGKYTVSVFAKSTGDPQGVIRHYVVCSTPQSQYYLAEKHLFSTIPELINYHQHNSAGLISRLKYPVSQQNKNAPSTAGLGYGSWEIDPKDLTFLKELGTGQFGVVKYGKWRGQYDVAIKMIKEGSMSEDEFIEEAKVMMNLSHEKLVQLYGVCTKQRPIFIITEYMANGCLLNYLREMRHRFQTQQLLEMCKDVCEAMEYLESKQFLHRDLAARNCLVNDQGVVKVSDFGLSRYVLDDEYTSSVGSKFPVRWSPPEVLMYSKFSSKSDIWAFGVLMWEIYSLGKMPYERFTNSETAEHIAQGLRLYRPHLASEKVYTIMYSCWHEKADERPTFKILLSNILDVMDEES
# Method: The dissociation equilibrium constant Kd was measured using the full-length BTK protein by Eurofins DiscoverX according to the following protocol: kinase-tagged T7 phage strains were prepared in an E. coli host derived from the BL21 strain. E. coli were grown to log-phase and infected with T7 phage and incubated with shaking at 32 °C until lysis. The lysates were centrifuged and filtered to remove cell debris. The remaining kinases were produced in HEK-293 cells and subsequently tagged with DNA for qPCR detection. […] The liganded beads were blocked with excess biotin and washed with blocking buffer (SeaBlock (Pierce), 1% BSA, 0.05% Tween 20, 1 mM DTT) to remove unbound ligand and to reduce non-specific binding. […] Test compounds were prepared as 111X stocks in 100% DMSO. […] The compounds were then diluted directly into the assays such that the final concentration of DMSO was 0.9%. All reactions performed in polypropylene 384-well plate. Each was a final volume of 0.02 mL. […] The kinase concentration in the eluates was measured by qPCR. For kinase-binding constant determination, an 11-point 3-fold serial dilution of each test compound was prepared in 100% DMSO at 100x final test concentration and subsequently diluted to 1x in the assay (final DMSO concentration = 1%). […] Binding constants (Kd values) were calculated with a standard dose-response curve using the Hill equation: Response=Background+Signal−Background/1+KdHillSlope/Dose^HillSlope
# The Hill Slope was set to −1. Curves were fitted using a non-linear least square fit with the Levenberg-Marquardt algorithm.
# [2] = target: T2, NanoLuc-CRBN fusion (Homo sapiens, UniProt Q96SW2); test: NanoBRET CRBN in-cell target engagement assay; format: cell-based; settings: for NanoBRET(%): Figure 3b
# T2 construct: host or cells: HEK 293T/17
# T2 sequence (Q96SW2 whole entry, the tested form may be a part): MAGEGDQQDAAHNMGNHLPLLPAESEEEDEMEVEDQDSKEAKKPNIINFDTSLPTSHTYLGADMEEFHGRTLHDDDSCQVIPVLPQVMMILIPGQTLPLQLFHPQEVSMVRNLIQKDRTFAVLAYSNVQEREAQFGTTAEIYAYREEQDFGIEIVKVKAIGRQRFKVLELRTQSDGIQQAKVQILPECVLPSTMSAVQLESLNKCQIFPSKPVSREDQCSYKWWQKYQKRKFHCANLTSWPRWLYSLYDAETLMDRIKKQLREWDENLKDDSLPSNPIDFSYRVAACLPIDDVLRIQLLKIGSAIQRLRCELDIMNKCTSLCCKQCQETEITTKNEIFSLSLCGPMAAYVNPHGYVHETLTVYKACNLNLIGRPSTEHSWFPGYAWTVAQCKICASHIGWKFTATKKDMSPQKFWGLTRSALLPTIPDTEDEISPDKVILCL
# T2 sequence (Q16531 whole entry partner, the tested form may be a part): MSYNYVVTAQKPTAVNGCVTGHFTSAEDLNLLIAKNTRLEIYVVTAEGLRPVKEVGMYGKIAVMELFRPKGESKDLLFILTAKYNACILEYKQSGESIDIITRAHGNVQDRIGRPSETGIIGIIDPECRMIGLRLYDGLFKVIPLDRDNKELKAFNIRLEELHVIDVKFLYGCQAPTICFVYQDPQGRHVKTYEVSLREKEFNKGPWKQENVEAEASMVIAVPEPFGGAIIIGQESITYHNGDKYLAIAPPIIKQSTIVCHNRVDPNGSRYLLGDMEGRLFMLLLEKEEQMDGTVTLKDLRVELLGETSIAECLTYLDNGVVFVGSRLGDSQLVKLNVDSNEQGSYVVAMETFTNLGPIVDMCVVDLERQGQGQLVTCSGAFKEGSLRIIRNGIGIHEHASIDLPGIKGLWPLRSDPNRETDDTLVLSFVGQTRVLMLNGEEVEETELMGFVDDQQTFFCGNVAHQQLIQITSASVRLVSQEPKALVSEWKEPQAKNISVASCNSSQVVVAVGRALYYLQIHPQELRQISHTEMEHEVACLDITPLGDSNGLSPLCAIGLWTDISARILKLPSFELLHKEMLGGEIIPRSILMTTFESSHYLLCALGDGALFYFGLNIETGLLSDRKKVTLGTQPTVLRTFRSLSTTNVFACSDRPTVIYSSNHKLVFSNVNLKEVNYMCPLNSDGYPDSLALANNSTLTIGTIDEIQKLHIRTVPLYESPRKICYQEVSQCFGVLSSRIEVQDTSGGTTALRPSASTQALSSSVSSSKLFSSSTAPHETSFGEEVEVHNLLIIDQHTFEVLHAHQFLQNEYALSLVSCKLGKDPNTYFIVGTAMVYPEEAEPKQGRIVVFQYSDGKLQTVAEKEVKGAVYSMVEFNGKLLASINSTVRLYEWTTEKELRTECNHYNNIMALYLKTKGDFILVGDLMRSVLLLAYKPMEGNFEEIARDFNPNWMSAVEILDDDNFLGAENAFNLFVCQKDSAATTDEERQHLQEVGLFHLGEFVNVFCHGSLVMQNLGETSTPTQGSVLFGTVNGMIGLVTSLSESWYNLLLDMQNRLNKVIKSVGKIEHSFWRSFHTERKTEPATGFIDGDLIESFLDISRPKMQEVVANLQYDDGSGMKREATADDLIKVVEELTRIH
# Summary of the method: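 Live cells expressing NanoLuc-CRBN with tracer and compound were incubated 2 h, then given Nano-Glo substrate plus extracellular NanoLuc inhibitor for 3 min at room temperature.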
# [3] = Permeability by lipid-PAMPA method (Pharmaron); format: in vitro ADME; settings: PAMPA
# Method: The permeability of compounds was measured using Lipid-PAMPA method by Pharmaron. Preparation of stock solutions: testosterone and methotrexate were used as control compounds in this assay. The stock solutions of positive controls were prepared in DMSO or acetonitrile at the concentration of 10 mM. Prepare a stock solution of compounds in DMSO at the concentration of 10 mM, and further dilute with PBS (pH 7.4). […]
# Assay procedures: prepare a 1.8% solution (w/v) of lecithin in dodecane, and sonicate the mixture to ensure a complete dissolution. Carefully pipette 5 μL of the lecithin/dodecane mixture into each acceptor plate well (top compartment), avoiding pipette tip contact with the membrane. Immediately after the application of the artificial membrane (within 10 min), add 300 μL of PBS (pH 7.4) solution to each well of the acceptor plate. Add 300 μL of drug-containing solutions to each well of the donor plate (bottom compartment) in triplicate. Slowly and carefully place the acceptor plate into the donor plate, making sure the underside of the membrane is in contact with the drug-containing solutions in all wells. Replace the plate lid and incubate at 25 °C, 60 rpm for 16 h. After incubation, aliquots of 50 μL from each well of acceptor and donor plate are transferred into a 96-well plate. Add 450 μL of methanol (containing IS: 100 nM Alprazolam, 200 nM Caffeine, 100 nM Tolbutamide) into each well. Cover with plate lid. Vortex at 750 rpm for 100 s. Samples were centrifuged at 3220 × g for 20 min. Determine the compound concentrations by LC/MS/MS. The effective permeability (Pe), in units of centimeter per second, can be calculated using the following equation: LogPe=LogC×−Ln1−drugacceptor/drugequilibrium
# [4] = target: BTK (Homo sapiens, UniProt Q06187); test: BTK degradation in MOLM-14 cells (western blot); format: cell-based; set-up: endogenous in cells; host or cells: MOLM-14; settings: for Quantification anti-BTK / anti-β-actin (BTK level vs DMSO): Figure 2b, duplicates
# Sequence of BTK (Q06187 whole entry): as the sequence (Q06187 whole entry, the tested form may be a part) above
compound,measurement,setting,value
CN(CC=CC(=O)N1CCCC(n2nc(-c3ccc(Oc4ccccc4)cc3)c3c(N)ncnc32)C1)CCCNC(=O)CNc1cccc2c1C(=O)N(C1CCC(=O)NC1=O)C2=O (stereo not drawn) [IRC-1],Signal,"[1]; BTK_+DTT, compound concentration 0.00491 nM",2.11E-05 and 2.14E-05
same,Signal,"[1]; BTK_+DTT, compound concentration 0.0147 nM",1.62E-05 and 1.97E-05
same,Signal,"[1]; BTK_+DTT, compound concentration 0.0442 nM",2.15E-05 and 2.03E-05
same,Signal,"[1]; BTK_+DTT, compound concentration 0.133 nM",2.11E-05 and 2.33E-05
same,Signal,"[1]; BTK_+DTT, compound concentration 0.398 nM",1.86E-05 and 1.95E-05
same,Signal,"[1]; BTK_+DTT, compound concentration 1.19 nM",1.43E-05 and 1.52E-05
same,Signal,"[1]; BTK_+DTT, compound concentration 3.58 nM",1.06E-05 and 1.08E-05
same,Signal,"[1]; BTK_+DTT, compound concentration 10.7 nM",5.42E-06 and 5.34E-06
same,Signal,"[1]; BTK_+DTT, compound concentration 32.2 nM",1.75E-06 and 1.73E-06
same,Signal,"[1]; BTK_+DTT, compound concentration 96.7 nM",3.47E-07 and 3.72E-07
same,Signal,"[1]; BTK_+DTT, compound concentration 290 nM",8.87E-08 and 9.98E-08
same,Signal,"[1]; BTK_-DTT, compound concentration 0.0152 nM",1.52E-05 and 1.19E-05
same,Signal,"[1]; BTK_-DTT, compound concentration 0.0457 nM",1.62E-05 and 1.68E-05
same,Signal,"[1]; BTK_-DTT, compound concentration 0.137 nM",1.78E-05 and 1.76E-05
same,Signal,"[1]; BTK_-DTT, compound concentration 0.412 nM",1.29E-05 and 1.60E-05
same,Signal,"[1]; BTK_-DTT, compound concentration 1.23 nM",1.07E-05 and 1.11E-05
same,Signal,"[1]; BTK_-DTT, compound concentration 3.7 nM",7.15E-06 and 6.34E-06
same,Signal,"[1]; BTK_-DTT, compound concentration 11.1 nM",3.52E-06 and 2.70E-06
same,Signal,"[1]; BTK_-DTT, compound concentration 33.3 nM",1.15E-06
same,Signal,"[1]; BTK_-DTT, compound concentration 100 nM",3.02E-07 and 3.08E-07
same,Signal,"[1]; BTK_-DTT, compound concentration 300 nM",1.03E-07 and 9.31E-08
same,Kd,"[1]; full-length BTK, absence of DTT in the buffer, duplicates",3 nM
same,NanoBRET(%),"[2]; 1.00E-05 M, triplicates",14.8662% and 22.7538% and 22.1529%
same,NanoBRET(%),"[2]; 1.60E-08 M, triplicates",80.9317% and 101.051% and 94.8942%
same,NanoBRET(%),"[2]; 2.00E-06 M, triplicates",31.3092% and 33.6262% and 37.1463%
same,NanoBRET(%),"[2]; 3.20E-09 M, triplicates",91.4483% and 90.0848%
same,NanoBRET(%),"[2]; 4.00E-07 M, triplicates",56.7638% and 59.2904%
same,NanoBRET(%),"[2]; 8.00E-08 M, triplicates",86.864% and 89.7074% and 93.5853%
same,IC50,"[2]; HEK-293 cells, CRBN tracer 0.5 µM, triplicates, read-out: CRBN target engagement IC50,TE",860 nM
same,"K′P,D (relative intracellular accumulation coefficient)","[2]; Kd (CRBN)/IC50,TE (CRBN)",1.7
same,CRBN engagement,[2]; at 400 nM,~ 40%
same,intracellular accumulation of RC-1 relative to the compound,"[2]; from K′P,D values, CRBN (Table 2)",10 fold
same,CRBN target engagement IC50 relative to that of RC-1,[2]; ratio compound/RC-1,3 fold
same,"recovery at 16 h, 10 μM",[3]; Recovery%,17.4%
same,"Papp at 16 h, 10 μM",[3]; pH 7.4,< 0.0245 ×10⁻⁶ cm/s
same,Quantification anti-BTK / anti-β-actin (BTK level vs DMSO),[4]; 8 nM,93.1337 and 89.8918
same,Quantification anti-BTK / anti-β-actin (BTK level vs DMSO),[4]; 40 nM,73.5656 and 73.5943
same,Quantification anti-BTK / anti-β-actin (BTK level vs DMSO),[4]; 200 nM,64.1549 and 63.4726
same,BTK degradation (in words),"[4]; MOLM-14 cells, indicated doses, 24 h",induced inefficient BTK degradation; also recorded: very little BTK degradation was observed
